From patent US20240041977A1, “ANNEXIN A1 N-TERMINAL PEPTIDE FORMULATIONS AND METHODS” (ResoTher Pharma A/S, priority 2020, published 2024)
Values joined by “and” are separate entries in the source; they are usually repeats but may differ in a detail not shown here. Equal entries are not always repeated. Marks after values point to notes of the source that are not given here. Ends that are not written are not given here.

Assay: ThT assay lag-time (fibrillation propensity, physical stability)
Type: physicochemical
Excerpt: ThT is widely used to visualize and quantify the presence of misfolded peptide and protein aggregates called amyloids or fibrils. ThT is a fluorescent molecule that binds to inter molecular beta-sheets in peptides and proteins (here AnxA1). […] A weaker fluorescence intensity is indicative of less amyloids or fibrils present with fewer intermolecular beta-sheets where ThT can bind. Some peptides have a tendency to form fibrils and amyloids and the propensity is dependent on the formulation conditions in an unpredictable manor. Fibrillation is a stochastic process and to avoid long analysis times and both false negatives and positive results, shear stress is introduced to the sample by rigorous rotation in microtiter plates while continuously monitoring the fluorescence emission at approximately 486 nm. An increase in the fluorescence is an indication of the formation of amyloids or fibrils and the time it takes for the fluorescence to start increasing is known as the lag-time. A faster (short) lag-time is an indication of higher propensity for the peptide to degrade by formation of fibrils or amyloids. A ThT fluorescence of 50 AU at t=0 is considered noise or background. Lag time is reported as the time it takes for the signal intensity to exceed 50 AU. All samples for the ThT assay were filtered through cellulose acetate filters ([…], Ø=13 mm, rinsed with MilliQ® water prior to filtration). For each sample, 20 μL ThT of a 1 mM solution was added to 1 mL peptide solution. From this sample mixture, 200 μL was transferred into n wells in a 96 well microtiter plate (n=3-6). 96-well NUNC plates Bottom optics and Sealing tape, Thermo Scientific™ Nunc™ Sealing Tapes, was used. Lag-time is reported as an average of n samples. A fluorescence plate reader (CLARIOstar® Plus, BMG Labtech) was used for the experiments with the following setting: Excitation wavelength 450 nm; Dichroic filter 465 nm; Emission wavelength 486 nm; Focal height 3.5 mm; Gain 1000; […]; […]; Number of flashes per well 20; Temperature 25° C.; Shake mode orbital, Frequency of 300 rpm, 200 s, and shake after each cycle. If possible, the average of all ThT data replicates are used for ThT lag-time determination. In case of very stochastic data, worst-case data is used for lag-time evaluation. ThT lag-time was determined using either a 1-step or 2-step sigmoidal curve.

**Q.** For “AMVSEFLKQAWFIENEEQEYVQTLKSSKGGPGSAVSPYPTFNPSSDV-NH2 [AnxA1]”, which Lag-time (AnxA1 4.6 mg/mL, sorbitol 5 wt.%, glycylglycine 10 mM, pH 8.0, no increase in fluorescence within 65 hours) is on record?
**A.** > 65* hours

**Q.** And the Lag-time (AnxA1 4.6 mg/mL, sucrose 10 wt.%, glycyl-glycine 30 mM, pH 8.0)?
**A.** 39 h

**Q.** What about the Lag-time (AnxA1 4.7 mg/mL, mannitol 5 wt.%, Tris 10 mM, pH 7.5) of the same substance?
**A.** 10.7 h

**Q.** And the Lag-time (AnxA1 4.7 mg/mL, mannitol 5 wt.%, glycylglycine 10 mM, pH 8.0, no increase in fluorescence within 65 hours)?
**A.** > 65* hours

**Q.** What about the Lag-time (AnxA1 4.7 mg/mL, sorbitol 5 wt.%, Tris 10 mM, pH 7.5) of the same substance?
**A.** 10.8 h

**Q.** What about the Lag-time (AnxA1 4.7 mg/mL, sucrose 10 wt.%, Tris 10 mM, pH 7.5) of the same substance?
**A.** 11.1 h

**Q.** And the Lag-time (AnxA1 4.7 mg/mL, sucrose 10 wt.%, glycyl-glycine 30 mM, pH 8.0 (two samples))?
**A.** >65 h and 50 h

**Q.** What about the Lag-time (AnxA1 4.8 mg/mL, mannitol 5 wt.%, histidine 10 mM, pH 6.6) of the same substance?
**A.** 42.1 h

**Q.** What about the Lag-time (AnxA1 4.8 mg/mL, sorbitol 5 wt.%, histidine 10 mM, pH 6.7) of the same substance?
**A.** 21.3 h

**Q.** What about the Lag-time (AnxA1 4.8 mg/mL, sucrose 10 wt.%, glycylglycine 10 mM, pH 7.9, no increase in fluorescence within 65 hours) of the same substance?
**A.** > 65* hours

**Q.** What about the Lag-time (AnxA1 4.8 mg/mL, sucrose 10 wt.%, histidine 10 mM, pH 6.6) of the same substance?
**A.** 48.8 h

**Q.** What about the Avg. lag-time (AnxA1 5.0 mg/mL, 0.9% NaCl in Milli Q water, pH 7.3) of the same substance?
**A.** 2.7 h

**Q.** What about the Lag-time (AnxA1 5 mg/mL, tonicity 80%, mannitol 3.2 wt.%, sucrose 0.8 wt.%, NaHCO3 10 mM, pH 8.41) of the same substance?
**A.** <60 h

**Q.** What about the Lag-time (AnxA1 5 mg/mL, tonicity 80%, mannitol 3.2 wt.%, sucrose 0.8 wt.%, glycylglycine 10 mM, pH 8.40) of the same substance?
**A.** <60 h

**Q.** What about the Lag-time (AnxA1 5 mg/mL, tonicity 100%, mannitol 4.0 wt.%, sucrose 1.0 wt.%, NaHCO3 10 mM, pH 8.40) of the same substance?
**A.** <60 h

**Q.** What about the Lag-time (AnxA1 5 mg/mL, tonicity 100%, mannitol 4.0 wt.%, sucrose 1.0 wt.%, glycylglycine 10 mM, pH 8.39) of the same substance?
**A.** <60 h

**Q.** What about the Lag-time (AnxA1 5 mg/mL, tonicity 120%, mannitol 4.8 wt.%, sucrose 1.2 wt.%, NaHCO3 10 mM, pH 8.40) of the same substance?
**A.** <60 h

**Q.** What about the Lag-time (AnxA1 5 mg/mL, tonicity 120%, mannitol 4.8 wt.%, sucrose 1.2 wt.%, glycylglycine 10 mM, pH 8.41) of the same substance?
**A.** <60 h

**Q.** What about the Lag-time (AnxA1 5 mg/mL, tonicity 200%, mannitol 8.0 wt.%, sucrose 2.0 wt.%, NaHCO3 10 mM, pH 8.44) of the same substance?
**A.** <60 h

**Q.** What about the Lag-time (AnxA1 5 mg/mL, tonicity 200%, mannitol 8.0 wt.%, sucrose 2.0 wt.%, glycylglycine 10 mM, pH 8.40) of the same substance?
**A.** <60 h

**Q.** What about the Avg. lag-time (AnxA1 6.1 mg/mL in Milli-Q water, pH 7.4) of the same substance?
**A.** 29.6 h

**Q.** What about the Avg. lag-time (AnxA1 6.4 mg/mL, 0.9% NaCl in Milli Q water, pH 7.3) of the same substance?
**A.** 0 h

**Q.** What about the Avg. lag-time (AnxA1 7.6 mg/mL, 0.9% NaCl in Milli Q water, pH 7.3) of the same substance?
**A.** 0 h

**Q.** And the Lag-time (AnxA1 7.7 mg/mL, sucrose 10 wt.%, glycyl-glycine 50 mM, pH 8.5)?
**A.** 29.5 h

**Q.** What about the Lag-time (AnxA1 7.8 mg/mL, mannitol 4 wt.%, sucrose 2.5 wt.%, glycyl-glycine 50 mM, pH 8.5) of the same substance?
**A.** 31.5 h

**Q.** What about the Lag-time (AnxA1 7.9 mg/mL, sucrose 10 wt.%, glycyl-glycine 10 mM, pH 7.5) of the same substance?
**A.** 23.8 h

**Q.** And the Avg. lag-time (AnxA1 8.0 mg/mL in Milli-Q water, pH 7.4)?
**A.** 11.5 h

**Q.** And the Lag-time (AnxA1 8.0 mg/mL, mannitol 4 wt.%, sucrose 2.5 wt.%, glycyl-glycine 10 mM, pH 7.5)?
**A.** 15.1 h

**Q.** And the Lag-time (AnxA1 8.0 mg/mL, mannitol 4 wt.%, sucrose 2.5 wt.%, glycyl-glycine 10 mM, pH 8.3)?
**A.** >65 h

**Q.** And the Lag-time (AnxA1 8.0 mg/mL, mannitol 4 wt.%, sucrose 2.5 wt.%, glycyl-glycine 50 mM, pH 7.6)?
**A.** 3.3 h

**Q.** And the Lag-time (AnxA1 8.0 mg/mL, mannitol 5 wt.%, glycyl-glycine 50 mM, pH 7.5)?
**A.** 3.1 h

**Q.** What about the Lag-time (AnxA1 8.0 mg/mL, mannitol 5 wt.%, glycyl-glycine 50 mM, pH 8.5) of the same substance?
**A.** 41.7 h

**Q.** And the Lag-time (AnxA1 8.1 mg/mL, mannitol 5 wt.%, glycyl-glycine 10 mM, pH 7.4)?
**A.** 13.7 h

**Q.** And the Lag-time (AnxA1 8.1 mg/mL, sucrose 10 wt.%, glycyl-glycine 10 mM, pH 8.2)?
**A.** >65 h

**Q.** What about the Lag-time (AnxA1 8.4 mg/mL, mannitol 5 wt.%, glycyl-glycine 10 mM, pH 8.2) of the same substance?
**A.** 41 h

**Q.** And the Avg. lag-time (AnxA1 20 mg/mL (estimated from amount weighed, gel-like texture), 0.9% NaCl, pH 8.1 (not considered valid))?
**A.** 0 h

**Q.** What about the lag-time (Example 11 composition at pH 7.5) of the same substance?
**A.** 35 h and 34.7 h

**Q.** And the lag-time (Milli Q water around neutral pH, no addition of salt)?
**A.** > 50 h

**Q.** And the “fibrillation in ThT assay” value (NaHCO3 or glycylglycine buffer at 20% hypotonicity, and at 20% and 100% hypertonicity)?
**A.** No fibrillation was observed

**Q.** What about the Lag-time (all samples containing 10 mM glycyl-glycine, pH 8, independent of AnxA1 concentration (1.5-4.8 mg/mL) and isotonicity modifier) of the same substance?
**A.** > 65 h

**Q.** And the fibrillation propensity (concentrations ≥5 mg/mL, 0.9% NaCl in Milli Q water, around neutral pH, degradation initiated before the analysis is started)?
**A.** very high fibrillation propensity

**Q.** And the “fibrillation in ThT assay” value (positive control sample in 0.9% saline)?
**A.** Fibrillation is observed

**Q.** What about the fibrillation propensity (saline at neutral pH around 7.3) of the same substance?
**A.** very high fibrillation propensity
